Experimental data reported in publication PMC2219390 (The Journal of General Physiology, 1996).
Where “and” joins values, the source holds several entries; their conditions need not be identical. Identical values can stand only once. Like-named read-outs stand apart in the source and are kept apart here.

Experiments:
[1] = system: rat brain voltage-dependent sodium channels (BTX-modified); type: biochemical
[2] = Fraction of uncharged molecules at pH 7.4; type: physicochemical
[3] = Fig. 5 A, one channel, +60 mV, low-Kd period

uncharged molecules [2] | SMILES | Measured FO2 (fractional time in the high affinity conformation) ([1]; 0.4 mM QX-314, +60 mV, six channels, 3.66 h) | Measured FO2 (fractional time in the high affinity conformation) ([1]; 3.0 mM QX-314, +60 mV, two channels, 4.32 h) | block of the small subconductance channel state (~6 pS) ([1]; 30 mM lidocaine (0.2 M NaCl) or 0.4 mM QX-314 (0.5 M NaCl), Fig. 7) | koff (amplitude distribution, beta function fit) [1, 3] [s⁻¹] | kon (amplitude distribution, beta function fit) [1, 3] [M⁻¹ s⁻¹] | koff ([1]; Table I A, symmetrical 0.5 M NaCl, 160mV as printed, channels a, b, c) | kon rate relative to lidocaine ([1]; low-Kd period, Table I part B)
 | CC[N+](CC)(CC)CC(=O)Nc1c(C)cccc1C [QX-314, lidocaine N-ethyl] | 0.655 | 0.983 | did not block | 238 | 896000 | 238 s⁻¹ and 253 s⁻¹ and 291 s⁻¹ and 256 s⁻¹ | about six times lower
~ 14% | CCN(CC)CC(=O)Nc1c(C)cccc1C [lidocaine] |  |  |  |  |  |  | 
